According to patent US20230086469A1, “AUTOANTIGENIC PEPTIDES (CALVICIFIV), PRESENTED BY TOLEROGENIC DENTRITIC CELLS, USEFUL FOR THE PERSONALIZED TREATMENT OF RHEUMATOID ARTHRITIS” (UNIVERSIDAD DE CHILE, priority 2019, published 2023):

Experiments:
Format in all cases: cell-based, human
[1] = system: autologous CD4+ T cells from patients with RA; assay: Co-culture of peptide-pulsed VD3-DCs with autologous CFSE-stained CD4+ T cells; conditions: VD3-DCs pulsed with peptide in comparison to mDCs; 5 days co-culture; FIG. 4B
Description: FIGS. 4A-4C. Modulation of antigen-specific CD4+ T cell responses by tDCs generated using different protocols and pulsed with autoantigenic peptides. Two different protocols were used for tDCs generation from peripheral blood monocytes of RA patients: 1) DCs treated with Bay 11-082 (Bay-DCs); and 2) DCs treated with vitamin D3, dexamethasone and LPS (VD3-DCs); mDCs were used as control. DCs were pulsed with previously selected peptides or mixtures of them, using a peptide derived from Aggrecan, as a positive control. Then, DCs were co-cultured with autologous CFSE-stained CD4+ T cells and, after 5 days, 8 the percentage of proliferating CD4+ T cells (CFSElo) expressing IFN-γ (FIG. 4A), IL-17 (FIG. 4B) or TNF-α (FIG. 4C), was evaluated by flow cytometry. The percentage of decrease in the expression of proinflammatory cytokines by CD4+ T cells co-cultured with tDCs in comparison to mDCs was calculated. […]
(§1) tDCs were then co-cultured with CFSE-stained CD4+ T cells and, after 5 days of culture, the percentage of proliferating CD4+T lymphocytes, expressing IFN-γ, IL-17 and TNF-α, was evaluated by flow cytometry. In each case, the percentage of decrease in the expression of proinflammatory cytokines by CD4+ T cells co-cultured with tDCs in comparison to mDCs was calculated.

[2] = system: autologous CD4+ T cells from patients with RA; assay: Co-culture of peptide-pulsed Bay-DCs with autologous CFSE-stained CD4+ T cells; conditions: Bay-DCs pulsed with peptide in comparison to mDCs, 5 days co-culture; for expression of IFN-γ by CD4+ T lymphocytes: FIG. 4A; for decrease of IL-17 expression by CD4+ T lymphocytes: FIG. 4B
Description: FIGS. 4A-4C. Modulation of antigen-specific CD4+ T cell responses by tDCs generated using different protocols and pulsed with autoantigenic peptides. Two different protocols were used for tDCs generation from peripheral blood monocytes of RA patients: 1) DCs treated with Bay 11-082 (Bay-DCs); and 2) DCs treated with vitamin D3, dexamethasone and LPS (VD3-DCs); mDCs were used as control. DCs were pulsed with previously selected peptides or mixtures of them, using a peptide derived from Aggrecan, as a positive control. Then, DCs were co-cultured with autologous CFSE-stained CD4+ T cells and, after 5 days, 8 the percentage of proliferating CD4+ T cells (CFSElo) expressing IFN-γ (FIG. 4A), IL-17 (FIG. 4B) or TNF-α (FIG. 4C), was evaluated by flow cytometry. The percentage of decrease in the expression of proinflammatory cytokines by CD4+ T cells co-cultured with tDCs in comparison to mDCs was calculated.
In order to evaluate the potential of autoantigenic peptides to load tolerogenic DCs generated from different protocols to modulate antigen-specific CD4+ T cell responses, co-culture assays of tDCs pulsed with autoantigenic peptides and autologous CD4+ T cells from patients with RA were performed. DCs were generated from monocytes according to the protocol described of example 2. To differentiate other tolerogenic dendritic cells types, DCs generated from monocytes were modulated with Bay-11-7982 an irreversible inhibitor of NF-κB (Bay-DCs), or modulated with Vitamin D3, dexamethasone and LPS (VD3-DCs). As control, mature DCs (mDCs) treated only with MPLA were used.
After this, the cells were pulsed with the autoantigenic peptides in the same way as an example 2, independently with the following autoantigenic peptides; 3 peptides derived from vimentin, such as Vimentin-1, Vimentin-1 citrullinated, Vimentin-2 citrullinated, or autoantigenic peptides derived from Fibrinogen, Calreticulin and Fibronectin, Aggrecan, as a positive control was used of the activation of the autologous CD4+ T cells, and un-pulsed DCs were used as a basal activation control. Besides mixtures were considered: Mix 1: Vimentin-1 and Vimentin-1 citrullinated; Mix 2: Vimentin-2 citrullinated and Calreticulin; Mix 3: Mix 1+Mix 2.
as §1

[3] = system: autologous CD4+ T cells from patients with RA; assay: Co-culture of peptide-pulsed MPLA-tDCs with autologous CFSE-stained CD4+ T cells; conditions: MPLA-tDCs pulsed with peptide in comparison to mDCs, 5 days co-culture; for expression of IFN-γ by proliferating CD4+ T lymphocytes: FIG. 3A
Description: FIGS. 3A-3C Modulation of antigen-specific CD4+ T cell responses by tolerogenic dendritic cells (tDCs) treated with dexamethasone and monophosphoryl lipid A (MPLA-tDCs) and pulsed with autoantigenic peptides. MPLA-tDCs and MPLA-matured DCs (mDCs), as activation control, were generated from peripheral blood monocytes of RA patients, and pulsed with previously selected peptides or mixtures of them, using a peptide derived from Aggrecan, previously described in literature, as a control peptide. Subsequently, DCs were co-cultured with autologous CFSE-stained CD4+ T cells and, after 5 days, the percentage of proliferating CD4+ T cells (CFSElo) expressing IFN-γ (FIG. 3A), L-17 (FIG. 3B) or TNF-α (FIG. 3C) was evaluated by flow cytometry. […] To compare the expression of cytokines induced by each type of DCs, a T test was performed (*p<0.05).
In order to evaluate the ability of tDCs to modulate antigen-specific CD4+ T cell responses, co-culture assays of tDCs pulsed with autoantigenic peptides and autologous CD4+ T cells from patients with RA were performed. DCs were generated from monocytes isolated from peripheral blood of patients with RA, cultured at a concentration of 2-3×10^6 cells/ml in serum-free AIM-V medium in the presence of 500 U/mL of recombinant human interleukin-4 (rhIL-4) and recombinant human […] colony stimulating factor (rhGM-CSF), for 5 days, at 37° C. and 5% CO2. […]
The effect of autoantigenic peptides to modulate effector CD4+ T cell responses of patients with RA, when are presented by tDCs generated using the protocol described in this application. […] DCs were then co-cultured with CFSE-stained CD4+ T cells and, after 5 days of culture, the percentage of proliferating CD4+T lymphocytes, expressing IFN-γ, IL-17 and TNF-α, was evaluated by flow cytometry. In each case, the percentage of decrease in the expression of proinflammatory cytokines by CD4+ T cells co-cultured with tDCs in comparison to mDCs was calculated.

Substance | decrease of IL-17 expression by CD4+ T lymphocytes [1] | expression of IFN-γ by CD4+ T lymphocytes [2] | decrease of IL-17 expression by CD4+ T lymphocytes [2] | expression of IFN-γ by proliferating CD4+ T lymphocytes [3] | expression of TNF-α by proliferating CD4+ T lymphocytes ([3]; FIG. 3C)
Calreticulin | high percentage of decrease | significantly reduced | high percentage of decrease | significantly reduced | –
Fibrinogen | high percentage of decrease | – | high percentage of decrease | – | –
Fibronectin | – | significantly reduced | – | significantly reduced | significantly decrease
